# Reference: patent publication US7803930B2, “Antisense modulation of apolipoprotein B-expression” (Isis Pharmaceuticals, Inc., priority 2002, dated 2010)
# In the oligonucleotide strings, read from the 5' end, every base follows the letter of its sugar. An asterisk marks phosphorothioate; unmarked linkages are phosphodiester. Other units and linkages are bracketed, terminal groups are in braces. A string of capitals states the bases alone. e = 2'-O-(2-methoxyethyl) (MOE); [5mC] = 5-methylcytosine; d = 2'-deoxy (DNA)
# Experiments:
# [1] = Toxicity in C57BL/6 mice, two weeks (Example 48): liver enzyme levels, body, liver and spleen weight; format: in vivo, mouse; set-up: Weight BODY / Weight LIVER / Weight SPLEEN: unit not given here; conditions: 25 mg/kg i.p. twice a week
# Procedure: C57BL/6 mice were divided into two groups—one group receiving oligonucleotide treatment and control animals receiving saline treatment. After overnight fasting, mice were dosed intraperitoneally twice a week with saline or 25 mg/kg of one of several oligonucleotides for two weeks. The antisense oligonucleotides used in the present study were ISIS 233172 (SEQ ID NO: 835) and ISIS 233175 (SEQ ID NO: 838), both targeted to rabbit apolipoprotein B, and ISIS 281625 (SEQ ID NO: 224), ISIS 301012 (SEQ ID NO: 247), and ISIS 301027 (SEQ ID NO: 262), targeted to human apolipoprotein B. At study termination and forty eight hours after the final injections, animals were sacrificed and evaluated for liver enzyme levels, body weight, liver weight, and spleen weight.
# [2] = system: rabbit apolipoprotein B mRNA; experiment: Inhibition of rabbit apolipoprotein B mRNA levels in primary rabbit hepatocytes, real-time PCR; format: cell-based; set-up: % INHIB of rabbit apolipoprotein B mRNA levels: concentration or dose not given beside the values; conditions: for Percent Inhibition of rabbit apolipoprotein B mRNA levels: averages from two experiments
# apolipoprotein B protein [3] = experiment: Apolipoprotein B protein secreted from primary Cynomolgous monkey hepatocytes, ELISA; format: cell-based; conditions: for % Reduction of monkey apolipoprotein B protein secretion / secretion of apolipoprotein B protein (ELISA): primary Cynomolgous hepatocytes; for % Reduction in secreted apolipoprotein B protein: primary Cynomolgous monkey hepatocytes
# Procedure: Apolipoprotein B protein secreted from primary Cynomolgous hepatocytes treated with 150 and 300 nM of oligonucleotide was measured by ELISA using an apolipoprotein B protein specific kit (ALerCHEK Inc., Portland, Me.). Each result represents the average of 3 experiments.
# Apolipoprotein B protein secreted primary Cynomolgous hepatocytes treated with 50 and 150 nM of ISIS 315089 and ISIS 281625 was measured by ELISA using an apolipoprotein B protein specific kit (ALerCHEK Inc., Portland, Me.). Each result represents the average of 3 experiments.
# Apolipoprotein B protein secreted from primary Cynomolgous hepatocytes treated with 50 and 150 nM of ISIS 271009 and ISIS 301027 was measured by ELISA using an apolipoprotein B protein specific kit (ALerCHEK Inc., Portland, Me.). Each result represents the average of 3 experiments.
# [4] = system: Cynomolgous monkey apolipoprotein B mRNA; experiment: Apolipoprotein B mRNA in primary Cynomolgous monkey hepatocytes, real-time PCR; format: cell-based; conditions: for % Inhibition of apolipoprotein B mRNA: primary Cynomolgous monkey hepatocytes
# Procedure: Antisense inhibition by ISIS 301012 was compared to that of ISIS 326358, which is a perfect match to the Cynomolgous monkey apolipoprotein B sequence to which ISIS 301012 hybridizes. The compounds were analyzed for their effect on Cynomolgous monkey apolipoprotein B mRNA levels in primary Cynomolgous monkey hepatocytes purchased from In Vitro Technologies ([…].). Pre-plated primary Cynonomolgous monkey hepatocytes were purchased from InVitro Technologies (Baltimore, Md.). Cells were cultured in high-glucose DMEM (Invitrogen Corporation, Carlsbad, Calif.) supplemented with 10% fetal bovine serum (Invitrogen Corporation, Carlsbad, Calif.), 100 units/mL and 100 μg/mL streptomycin (Invitrogen Corporation, Carlsbad, Calif.).
# Primary Cynomolgous monkey hepatocytes were treated with 10, 50, 150 or 300 nM of antisense oligonucleotides for 48 hours. ISIS 113529 (SEQ ID NO: 859) was used as a control oligonucleotide. Untreated cells also served as a control. Cynomolgous monkey apolipoprotein B mRNA levels were quantitated by real-time PCR using the human apolipoprotein B and GAPDH primers and probes described by other examples herein. The results, shown in Table 44, are the average of 6 experiments and are expressed as percent inhibition of apolipoprotein B mRNA normalized to untreated control cells.
# In a further embodiment of the invention, antisense inhibition by ISIS 281625 was compared to that by ISIS 315089, which is a perfect match to the Cynomolgous monkey apolipoprotein B sequence to which ISIS 281625 hybridizes. Primary Cynomolgous monkey hepatocytes, cultured as described herein, were treated with 10, 50, 150 or 300 nM of ISIS 315089 or ISIS 281625 for 24 hours. Cells were treated with the control oligonucleotide ISIS 13650 (SEQ ID NO: 806) at 150 and 300 nM or ISIS 113529 (SEQ ID NO: 859) at 300 nM. Untreated cells also served as a control. Cynomolgous monkey apolipoprotein B mRNA levels in primary Cynomolgous monkey hepatocytes was quantitated using real-time PCR with human primers and probe as described by other examples herein. The results, shown in Table 46, are the average of 3 experiments and are expressed as percent inhibition of apolipoprotein B mRNA normalized to untreated control cells.
# ISIS 271009 (SEQ ID NO: 319) and ISIS 301027 (SEQ ID NO: 262) were also tested for their effects on apolipoprotein B mRNA and protein expression in Cynomolgous primary hepatoctyes. Cells, cultured as described herein, were treated with 10, 50 and 150 nM of ISIS 271009 or ISIS 301027 for 24 hours. Cells were treated with the control oligonucleotide ISIS 113529 (SEQ ID NO: 859) at 150 nM. Untreated cells also served as a control. Cynomolgous monkey apolipoprotein B mRNA levels in primary Cynomolgous monkey hepatocytes was quantitated using real-time PCR with human primers and probe as described by other examples herein. The results, shown in Table 48, are the average of 2 experiments and are expressed as percent inhibition of apolipoprotein B mRNA normalized to untreated control cells.
# apolipoprotein B protein [5] = experiment: Apolipoprotein B protein secreted from primary human hepatocytes, ELISA; format: cell-based; conditions: 150 nM, 24 hours, "+" = increased
# Procedure: (§1) Oligonucleotides were introduced into cells through LIPOFECTIN-mediated transfection as described by other examples herein. Cells were harvested both 24 and 48 hours after treatment with oligonucleotide, and both RNA and protein were isolated. Additionally, the culture media from treated cells was collected for ELISA analysis of apolipoprotein B protein secretion.
# Apolipoprotein secreted from into the cultured cell media was measured in the samples treated with 50 and 150 nM of oligonucleotide, using a target protein specific ELISA kit (ALerCHEK Inc., Portland, Me.). Each result represents 3 experiments.
# (§2) An additional experiment was performed to test the effects of ISIS 271009 (SEQ ID NO: 319), ISIS 281625 (SEQ ID NO: 224) and ISIS 301027 (SEQ ID NO: 262) on human apolipoprotein B mRNA in human primary hepatocytes. Cells were cultured as described herein and treated with 5, 10, 50 or 150 nM of ISIS 271009, ISIS 281625 or ISIS 301027 for a period of 24 hours. The control oligonucleotides ISIS 13650 (SEQ ID NO: 806) and ISIS 113529 (SEQ ID NO: 859) were used at 50 or 150 nM. Human apolipoprotein B mRNA expression was evaluated by real-time PCR as described by other examples herein. Apolipoprotein B protein secreted into the cultured cell media was measured in the samples treated with 50 and 150 nM of oligonucleotide, using a target protein specific ELISA kit (ALerCHEK Inc., Portland, Me.).
# [6] = system: human apolipoprotein B mRNA; experiment: Apolipoprotein B mRNA in primary human hepatocytes, real-time PCR; format: cell-based; conditions: 24 hours (Table 37)
# Procedure: In accordance with the present invention, antisense oligonucleotides targeted to human apolipoprotein B were tested in dose response studies in primary human hepatocytes. Pre-plated primary human hepatocytes were purchased from Invitro Technologies (Baltimore, Md.). Cells were cultured in high-glucose DMEM (Invitrogen Corporation, Carlsbad, Calif.) supplemented with 10% fetal bovine serum (Invitrogen Corporation, Carlsbad, Calif.), 100 units/mL and 100 μg/mL streptomycin (Invitrogen Corporation, Carlsbad, Calif.).
# Human primary hepatocytes were treated with ISIS 301012 (SEQ ID NO: 247) at 10, 50, 150 or 300 nM. Untreated cells and cells treated with the scrambled control oligonucleotide ISIS 113529 ([…], SEQ ID NO: 859) served as two groups of control cells. ISIS 113529 is a chimeric oligonucleotide (“gapmer”) 20 nucleotides in length, composed of a central “gap” region consisting of ten 2′-deoxynucleotides, which is flanked on both sides (5′ and 3′ directions) by five-nucleotide “wings”. The wings are composed of 2′-methoxyethyl (2′-MOE)nucleotides. The internucleoside (backbone) linkages are phosphorothioate (P═S) throughout the oligonucleotide. All cytidines are 5-methylcytidines.
# as §1
# Apolipoprotein B mRNA expression was determined by real-time PCR of RNA samples as described by other examples herein. Each result represents 6 experiments.
# as §2
substance,measurement,setting,value
233172 (antisense eA*eT*eG*eG*eA*dA*dG*dA*d[5mC]*dT*dG*dG*d[5mC]*dA*dG*e[5mC]*eT*e[5mC]*eT*eA) [compound 233172],Liver Enzymes ALT,[1],43.3 IU/L
same,Liver Enzymes AST,[1],94.3 IU/L
same,Weight BODY,[1],21.3
same,Weight LIVER,[1],1.3
same,Weight SPLEEN,[1],0.1
same,% INHIB of rabbit apolipoprotein B mRNA levels,[2],86%
same,Percent Inhibition of rabbit apolipoprotein B mRNA levels,[2]; 10 nM,60%
same,Percent Inhibition of rabbit apolipoprotein B mRNA levels,[2]; 50 nM,76%
same,Percent Inhibition of rabbit apolipoprotein B mRNA levels,[2]; 150 nM,81%
same,Percent Inhibition of rabbit apolipoprotein B mRNA levels,[2]; 300 nM,84%
233175 (antisense eG*eA*e[5mC]*e[5mC]*eT*dT*dG*dA*dG*dT*dA*dG*dA*dT*dT*e[5mC]*e[5mC]*eT*eG*eG) [compound 233175],Liver Enzymes ALT,[1],230.2 IU/L
same,Liver Enzymes AST,[1],346.7 IU/L
same,Weight BODY,[1],21.5
same,Weight LIVER,[1],1.4
same,Weight SPLEEN,[1],0.1
same,% INHIB of rabbit apolipoprotein B mRNA levels,[2],90%
same,Percent Inhibition of rabbit apolipoprotein B mRNA levels,[2]; 10 nM,67%
same,Percent Inhibition of rabbit apolipoprotein B mRNA levels,[2]; 50 nM,85%
same,Percent Inhibition of rabbit apolipoprotein B mRNA levels,[2]; 150 nM,90%
same,Percent Inhibition of rabbit apolipoprotein B mRNA levels,[2]; 300 nM,93%
315089 (antisense eA*eG*eA*eT*eT*dA*d[5mC]*d[5mC]*dA*dG*d[5mC]*d[5mC]*dA*dT*dA*eT*eG*e[5mC]*eA*eG) [compound 315089],% Reduction of monkey apolipoprotein B protein secretion,apolipoprotein B protein [3]; 50 nM (Table 47),11%
same,% Reduction of monkey apolipoprotein B protein secretion,apolipoprotein B protein [3]; 150 nM (Table 47),25%
same,% Inhibition of apolipoprotein B mRNA,"[4]; 10 nM, 24 hours (Table 46), ""+"" = expression increased",70%
same,% Inhibition of apolipoprotein B mRNA,"[4]; 50 nM, 24 hours (Table 46)",83%
same,% Inhibition of apolipoprotein B mRNA,"[4]; 150 nM, 24 hours (Table 46), ""+"" = expression increased",81%
same,% Inhibition of apolipoprotein B mRNA,"[4]; 300 nM, 24 hours (Table 46)",82%
326358 (antisense eG*e[5mC]*e[5mC]*eT*e[5mC]*dA*dG*dT*d[5mC]*dT*dG*d[5mC]*dT*dT*dT*eA*e[5mC]*eA*e[5mC]*e[5mC]) [compound 326358],% Reduction in secreted apolipoprotein B protein,"apolipoprotein B protein [3]; 150 nM, 24 hours",21%
same,% Reduction in secreted apolipoprotein B protein,"apolipoprotein B protein [3]; 150 nM, 48 hours",29%
same,% Reduction in secreted apolipoprotein B protein,"apolipoprotein B protein [3]; 300 nM, 24 hours",17%
same,% Reduction in secreted apolipoprotein B protein,"apolipoprotein B protein [3]; 300 nM, 48 hours",35%
same,% Inhibition of apolipoprotein B mRNA,"[4]; 10 nM, 24 hours",35%
same,% Inhibition of apolipoprotein B mRNA,"[4]; 10 nM, 48 hours",85%
same,% Inhibition of apolipoprotein B mRNA,"[4]; 50 nM, 24 hours",66%
same,% Inhibition of apolipoprotein B mRNA,"[4]; 50 nM, 48 hours",88%
same,% Inhibition of apolipoprotein B mRNA,"[4]; 150 nM, 24 hours",61%
same,% Inhibition of apolipoprotein B mRNA,"[4]; 150 nM, 48 hours",82%
same,% Inhibition of apolipoprotein B mRNA,"[4]; 300 nM, 24 hours",64%
same,% Inhibition of apolipoprotein B mRNA,"[4]; 300 nM, 48 hours",87%
"AGATTACCAGCCATATGCAG (gapmer: ten 2'-deoxy gap, five-nucleotide wings, wing chemistry not given here) [ISIS 315089]",secretion of apolipoprotein B protein (ELISA),apolipoprotein B protein [3]; 150 nM,decrease
same,secretion of apolipoprotein B protein (ELISA),apolipoprotein B protein [3]; 50 and 150 nM (statement after Table 49),decrease
same,inhibition of apolipoprotein B mRNA expression,"[4]; Cynomolgous monkey primary hepatocytes, 10, 50, 150 or 300 nM, 24 hours",in a dose-dependent manner
"CTCTTACTGTGCTGTGGACA (antisense e[5mC]*eT*e[5mC]*eT*eT*dA*d[5mC]*dT*dG*dT*dG*d[5mC]*dT*dG*dT*eG*eG*eA*e[5mC]*eA) [ISIS 113529, reference compound]",% Inhibition of apolipoprotein B protein secretion,apolipoprotein B protein [5],+1%
same,% Inhibition of apolipoprotein B mRNA expression,[6]; 50 nM,0%
same,% Inhibition of apolipoprotein B mRNA expression,[6]; 150 nM,14%
"ISIS 13650: SEQ ID NO: 806, control oligonucleotide (antisense TCCCGCCTGTGACATGCATT; listed as DNA, chemistry not given here) [reference compound]",% Inhibition of apolipoprotein B protein secretion,apolipoprotein B protein [5],+18%
same,% Inhibition of apolipoprotein B mRNA expression,[6]; 50 nM,38%
same,% Inhibition of apolipoprotein B mRNA expression,[6]; 150 nM,26%
"ISIS 233175: SEQ ID NO: 838, targeted to rabbit apolipoprotein B (antisense eG*eA*e[5mC]*e[5mC]*eT*dT*dG*dA*dG*dT*dA*dG*dA*dT*dT*e[5mC]*e[5mC]*eT*eG*eG)",levels of liver enzymes relative to saline treatment,[1],drastically increased
